The values below come from patent publication US10159655B2, “Agent for inhibiting odor of pyrazine derivatives” (Kao Corporation, priority 2012, dated 2018).

One assay deals with T1, olfactory receptor OR5K1 (Homo sapiens, UniProt Q8NHB7).
T1 construct: expressed in transfected cells; host or cells: HEK293
T1 sequence (Q8NHB7 1-308): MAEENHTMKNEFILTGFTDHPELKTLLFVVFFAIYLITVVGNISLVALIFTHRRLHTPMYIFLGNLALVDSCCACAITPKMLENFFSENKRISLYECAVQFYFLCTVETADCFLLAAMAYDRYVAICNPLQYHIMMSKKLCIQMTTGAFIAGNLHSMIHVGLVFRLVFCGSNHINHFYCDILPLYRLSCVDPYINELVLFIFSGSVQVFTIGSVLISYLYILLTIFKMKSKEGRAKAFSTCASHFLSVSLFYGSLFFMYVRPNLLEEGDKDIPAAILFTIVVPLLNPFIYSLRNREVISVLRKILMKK
Put plainly: Luciferase reporter gene assay: response of olfactory receptor OR5K1 expressed in HEK293 cells to pyrazine compounds. It counts as cell-based. The settings on record: 0, 3, 10, 30, 100, 300 and 1000 μM; HEK293 cells with RTP1S variant; FIG. 2. From the text: Human olfactory receptors were cloned based on sequence information registered in GenBank by PCR using human genomic DNA female (G1521: Promega Corporation) as a template. Each gene amplified by PCR was inserted into a pENTR vector (Invitrogen Inc.) in accordance with the manual and was recombined into the NotI and AscI site located downstream of a Flag-Rho tag sequence in a pME18S vector using the NotI and AscI site present in the pENTR vector.
An RTP1S variant gene (SEQ ID NO: 3) encoding an RTP1S variant (SEQ ID NO: 4) was inserted into the EcoRI and XhoI site of a pME18S vector.
HEK293 cells expressing 373 types of human olfactory receptors were produced. A reaction solution having a composition shown in Table 1 was prepared and left to stand in a clean bench for 15 min and then was dispensed in each well of a 96-well plate (Becton, Dickinson and Company). Subsequently, HEK293 cells (100 μL, 3×10^5 cells/cm^2) were seeded in each well and cultured in an incubator at 37° C. and 5% CO2 for 24 hr.
An olfactory receptor expressed in HEK293 cells couples with endogenous Gas in the cells to activate adenylate cyclase and thereby increases the amount of intracellular cAMP. In this study, the response of a pyrazine derivative was measured by luciferase reporter gene assay which monitors an increase in amount of intracellular cAMP as the luminescence value derived from a firefly luciferase gene (fluc2P-CRE-hygro). A Renilla luciferase gene was fused downstream of a CMV promoter (hRluc-CMV) and was also introduced to HEK293 cells as an internal standard to correct errors in transgenic efficiency and number of cells.
The culture medium was removed from the culture produced in the above 3), and 75 μL of a solution prepared with a CD293 medium (Invitrogen Inc.) so as to contain a pyrazine derivative (1 mM, 2,6-dimethylpyrazine) was added thereto. The cells were cultured in a CO2 incubator for 2.5 hr to sufficiently express the luciferase gene in the cells. The luciferase activity was measured with a Dual-Glo™ luciferase assay system (Promega Corporation) in accordance with the operating manual of the system. The fold increases were calculated by dividing the luminescence value derived from firefly luciferase induced by stimulation with a pyrazine derivative at each concentration by the luminescence value in cells not stimulated with the pyrazine derivative and were used as an index of response strength.
Olfactory receptor OR5K1 (SEQ ID NO: 2) was expressed in HEK293 cells together with an RTP1S variant (SEQ ID NO: 4) by the same procedure as in Example 1, and the dependency of the response on the concentration (0, 3, 10, 30, 100, 300, and 1000 μM) of various pyrazine compounds was investigated. The pyrazine compounds used in this Example were pyrazine and pyrazine derivatives selected from the group consisting of 2-methylpyrazine, 2,3-dimethylpyrazine, 2,5-dimethylpyrazine, 2,3,5-trimethylpyrazine, 2,3,5,6-tetramethylpyrazine, and 2-ethylpyrazine.
In general terms: Reporter assays use an easily measured gene product as a stand-in for the process of interest.
`Cc1nc(C)c(C)nc1C` [2,3,5,6-tetramethylpyrazine]: the “dependency of the response of OR5K1 on the concentration of pyrazine compounds” value (“dependency of the response of OR5K1” for short) is reported as “dose-dependently responded”.

With `Cc1cnc(C)c(C)n1` [2,3,5-trimethylpyrazine], the “dependency of the response of OR5K1” value is on record as “dose-dependently responded”.

Consider `Cc1nccnc1C` [2,3-dimethylpyrazine], for which the “dependency of the response of OR5K1” value is given as “dose-dependently responded”.

With `Cc1cnc(C)cn1` [2,5-dimethylpyrazine], the “dependency of the response of OR5K1” value is “dose-dependently responded”.

In the case of `Cc1cncc(C)n1` [2,6-dimethylpyrazine], the “dependency of the response of OR5K1” value is recorded as “dose-dependently responded”.

In the case of `CCc1cnccn1` [2-ethylpyrazine], the “dependency of the response of OR5K1” value is “dose-dependently responded”.

On to `Cc1cnccn1` [2-methylpyrazine], for which the “dependency of the response of OR5K1” value is reported as “dose-dependently responded”.

On to `c1cnccn1` [pyrazine], for which the “dependency of the response of OR5K1” value was “did not respond”.

The same assay, now with this note: 1 mM; 373 types of human olfactory receptors screened in HEK293 cells; FIG. 1.
Regarding `Cc1cncc(C)n1` [2,6-dimethylpyrazine], the “response of olfactory receptor to 2,6-dimethylpyrazine (fold increase of luciferase luminescence)” value is reported as “responded”.
